# In the supplement of paper PMC10307832:
# Compound: Cc1cnc(CNC(=O)c2c(=O)c3ccc(N4CCCN(C)CC4)nc3n3c2sc2ccccc23)cn1 [CX-5461] + N=C(N)NC(=N)NCCc1ccccc1 [Phenformin] (partner 250 µM)
# Assay: relative viability (nuclei count vs DMSO), 5 days (fraction); higher = more cells survive
# Details: first compound 0.01 µM
# Procedure, shortened: (§1)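 Values are medians from duplicate plates. Each reflects relative viability, defined as the nuclei count of treated wells over that of vehicle wells. Lung cancer cell lines in 1536-well plates were pin-tool dosed one day after seeding with one drug alone or with a fixed anchor-drug dose plus five library-drug doses (not always all listed) in √10 steps, then fixed, stained and imaged at 4× after 5 days.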
row,Cell Line,relative viability
1,NCI-H2228,0.327
2,NCI-H1792,0.387
3,NCI-H1355,0.501
4,NCI-H3122,0.385
5,NCI-H1437,0.353
6,NCI-H1755,0.603
7,NCI-H2023,0.374
8,HCC-15,0.514
9,NCI-H1944,0.228
10,PC-14,0.761
11,EKVX,0.231
12,LC-2-ad,0.618
13,NCI-H2170,0.44
14,NCI-H1975,0.44
15,RERF-LC-KJ,0.448
16,ABC-1,0.23
17,SK-MES-1,0.662
18,NCI-H650,0.486
19,PC-3 [JPC-3],0.479

# Same assay, conditions: first compound 0.03162 µM
row,Cell Line,relative viability
1,NCI-H2228,0.204
2,NCI-H1792,0.198
3,NCI-H1355,0.458
4,NCI-H3122,0.343
5,NCI-H1437,0.315
6,NCI-H1755,0.637
7,NCI-H2023,0.335
8,HCC-15,0.53
9,NCI-H1944,0.193
10,PC-14,0.511
11,EKVX,0.236
12,LC-2-ad,0.627
13,NCI-H2170,0.418
14,NCI-H1975,0.401
15,RERF-LC-KJ,0.457
16,ABC-1,0.212
17,SK-MES-1,0.645
18,NCI-H650,0.441
19,PC-3 [JPC-3],0.449

# Same assay, conditions: first compound 0.1 µM
row,Cell Line,relative viability
1,NCI-H2228,0.184
2,NCI-H1792,0.114
3,NCI-H1355,0.454
4,NCI-H3122,0.316
5,NCI-H1755,0.615
6,NCI-H2023,0.194
7,HCC-15,0.372
8,NCI-H1944,0.181
9,PC-14,0.499
10,EKVX,0.186
11,LC-2-ad,0.564
12,NCI-H2170,0.407
13,NCI-H1975,0.377
14,RERF-LC-KJ,0.292
15,ABC-1,0.213
16,SK-MES-1,0.452
17,NCI-H650,0.429
18,PC-3 [JPC-3],0.467

# Same assay, conditions: first compound 0.3162 µM
row,Cell Line,relative viability
1,NCI-H2228,0.26
2,NCI-H1792,0.401
3,NCI-H1355,0.299
4,NCI-H3122,0.378
5,NCI-H1437,0.288
6,NCI-H1755,0.56
7,NCI-H2023,0.294
8,HCC-15,0.467
9,NCI-H1944,0.159
10,PC-14,0.229
11,EKVX,0.224
12,LC-2-ad,0.398
13,NCI-H2170,0.363
14,NCI-H1975,0.415
15,RERF-LC-KJ,0.41
16,SK-MES-1,0.625
17,NCI-H650,0.487
18,PC-3 [JPC-3],0.467

# Same assay, conditions: first compound 1 µM
row,Cell Line,relative viability
1,NCI-H2228,0.0912
2,NCI-H1792,0.111
3,NCI-H1355,0.244
4,NCI-H3122,0.248
5,NCI-H1437,0.273
6,NCI-H1755,0.493
7,NCI-H2023,0.0701
8,HCC-15,0.163
9,NCI-H1944,0.122
10,PC-14,0.319
11,EKVX,0.24
12,LC-2-ad,0.442
13,NCI-H2170,0.322
14,NCI-H1975,0.2
15,RERF-LC-KJ,0.386
16,ABC-1,0.212
17,SK-MES-1,0.313
18,NCI-H650,0.386
19,PC-3 [JPC-3],0.455

# Compound: Cc1cnc(CNC(=O)c2c(=O)c3ccc(N4CCCN(C)CC4)nc3n3c2sc2ccccc23)cn1 [CX-5461] + COc1cccc2cc(-c3nc([C@H]4CC[C@H](C(=O)O)CC4)n4ncnc(N)c34)[nH]c12 [OSI-027] (partner 0.5 µM)
# Assay: as above
# Details: first compound 0.01 µM
# Procedure, shortened: as §1
row,Cell Line,relative viability
1,NCI-H2228,0.629
2,NCI-H1792,0.657
3,NCI-H1355,0.438
4,NCI-H3122,1.07
5,NCI-H1437,0.912
6,NCI-H1755,0.732
7,NCI-H2023,0.387
8,HCC-15,0.692
9,NCI-H1944,0.49
10,PC-14,0.927
11,EKVX,0.745
12,LC-2-ad,0.919
13,NCI-H2170,0.812
14,NCI-H1975,0.842
15,RERF-LC-KJ,0.56
16,ABC-1,0.465
17,SK-MES-1,0.586
18,NCI-H650,0.578
19,PC-3 [JPC-3],0.828

# Same assay, conditions: first compound 0.03162 µM
row,Cell Line,relative viability
1,NCI-H2228,0.428
2,NCI-H1792,0.786
3,NCI-H1355,0.428
4,NCI-H3122,0.882
5,NCI-H1437,0.869
6,NCI-H1755,0.736
7,NCI-H2023,0.386
8,HCC-15,0.71
9,NCI-H1944,0.446
10,PC-14,1.01
11,EKVX,0.676
12,LC-2-ad,0.866
13,NCI-H2170,0.666
14,NCI-H1975,0.735
15,RERF-LC-KJ,0.628
16,ABC-1,0.562
17,SK-MES-1,0.57
18,NCI-H650,0.558
19,PC-3 [JPC-3],0.811

# Same assay, conditions: first compound 0.1 µM
row,Cell Line,relative viability
1,NCI-H2228,0.361
2,NCI-H1792,0.763
3,NCI-H1355,0.456
4,NCI-H3122,0.938
5,NCI-H1755,0.713
6,NCI-H2023,0.184
7,HCC-15,0.66
8,NCI-H1944,0.377
9,PC-14,0.85
10,EKVX,0.786
11,LC-2-ad,0.705
12,NCI-H2170,0.754
13,NCI-H1975,0.661
14,RERF-LC-KJ,0.572
15,ABC-1,0.251
16,SK-MES-1,0.582
17,NCI-H650,0.483
18,PC-3 [JPC-3],0.773

# Same assay, conditions: first compound 0.3162 µM
row,Cell Line,relative viability
1,NCI-H2228,0.272
2,NCI-H1792,0.759
3,NCI-H1355,0.267
4,NCI-H3122,0.672
5,NCI-H1437,0.841
6,NCI-H1755,0.646
7,NCI-H2023,0.329
8,HCC-15,0.554
9,NCI-H1944,0.252
10,PC-14,0.729
11,EKVX,0.734
12,LC-2-ad,0.718
13,NCI-H2170,0.707
14,NCI-H1975,0.865
15,RERF-LC-KJ,0.528
16,SK-MES-1,0.607
17,NCI-H650,0.536
18,PC-3 [JPC-3],0.668

# Same assay, conditions: first compound 1 µM
row,Cell Line,relative viability
1,NCI-H2228,0.13
2,NCI-H1792,0.659
3,NCI-H1355,0.321
4,NCI-H3122,0.668
5,NCI-H1437,0.662
6,NCI-H1755,0.655
7,NCI-H2023,0.0856
8,HCC-15,0.253
9,NCI-H1944,0.259
10,PC-14,0.236
11,EKVX,0.688
12,LC-2-ad,0.546
13,NCI-H2170,0.747
14,NCI-H1975,0.329
15,RERF-LC-KJ,0.434
16,ABC-1,0.362
17,SK-MES-1,0.372
18,NCI-H650,0.352
19,PC-3 [JPC-3],0.707
